Among the data in patent publication US9822131B2, “Certain chemical entities, compositions and methods” (Intellikine LLC, priority 2008, dated 2017) are IC50 and EC50 values, retold here.

In general, IC50 refers to the concentration needed to halve the response being measured. Read a high IC50 as a need for much substance.

One test has as its target T1, PI3K β (Homo sapiens, UniProt P42338).
T1 construct: purchased Upstate
As to the kind of experiment: PI3K β in vitro kinase inhibition assay. In kind it is biochemical.

The next test concerns the target T2, PI3K δ (Homo sapiens, UniProt O00329).
T2 construct: purchased Upstate
As to the kind of experiment: PI3K δ in vitro kinase inhibition assay. It counts as biochemical.

In a further test the target is T3, PI3K α (Homo sapiens, UniProt P42336).
T3 construct: purchased Upstate
T3 sequence (P42336 whole entry): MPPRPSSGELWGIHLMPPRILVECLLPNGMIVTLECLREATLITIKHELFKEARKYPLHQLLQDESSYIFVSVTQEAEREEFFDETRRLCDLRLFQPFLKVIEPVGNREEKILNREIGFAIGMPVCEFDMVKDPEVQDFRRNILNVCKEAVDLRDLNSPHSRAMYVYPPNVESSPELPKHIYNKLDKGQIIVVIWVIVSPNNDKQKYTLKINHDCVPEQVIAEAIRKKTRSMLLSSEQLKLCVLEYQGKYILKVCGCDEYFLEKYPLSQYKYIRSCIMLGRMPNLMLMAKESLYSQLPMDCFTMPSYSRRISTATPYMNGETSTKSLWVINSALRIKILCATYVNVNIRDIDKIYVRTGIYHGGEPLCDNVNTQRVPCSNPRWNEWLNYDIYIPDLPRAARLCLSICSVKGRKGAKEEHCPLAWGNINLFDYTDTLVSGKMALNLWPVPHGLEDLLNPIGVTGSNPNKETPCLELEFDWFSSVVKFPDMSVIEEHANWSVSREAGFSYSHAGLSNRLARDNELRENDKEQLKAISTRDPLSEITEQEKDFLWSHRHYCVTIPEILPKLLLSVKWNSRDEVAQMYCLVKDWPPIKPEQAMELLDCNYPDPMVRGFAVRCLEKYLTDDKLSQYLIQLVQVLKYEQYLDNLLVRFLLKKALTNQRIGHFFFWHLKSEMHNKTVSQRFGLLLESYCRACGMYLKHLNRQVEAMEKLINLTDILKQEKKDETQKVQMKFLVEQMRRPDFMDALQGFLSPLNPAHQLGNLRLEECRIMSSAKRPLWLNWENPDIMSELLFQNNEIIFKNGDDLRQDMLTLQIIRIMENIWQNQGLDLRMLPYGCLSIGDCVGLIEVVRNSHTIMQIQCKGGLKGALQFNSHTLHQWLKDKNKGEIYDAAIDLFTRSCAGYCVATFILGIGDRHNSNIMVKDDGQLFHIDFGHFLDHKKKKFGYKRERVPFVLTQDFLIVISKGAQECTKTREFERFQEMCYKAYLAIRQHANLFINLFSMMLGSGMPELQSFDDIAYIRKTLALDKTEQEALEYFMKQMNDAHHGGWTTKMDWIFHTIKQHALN
T3 sequence (P27986 whole entry partner): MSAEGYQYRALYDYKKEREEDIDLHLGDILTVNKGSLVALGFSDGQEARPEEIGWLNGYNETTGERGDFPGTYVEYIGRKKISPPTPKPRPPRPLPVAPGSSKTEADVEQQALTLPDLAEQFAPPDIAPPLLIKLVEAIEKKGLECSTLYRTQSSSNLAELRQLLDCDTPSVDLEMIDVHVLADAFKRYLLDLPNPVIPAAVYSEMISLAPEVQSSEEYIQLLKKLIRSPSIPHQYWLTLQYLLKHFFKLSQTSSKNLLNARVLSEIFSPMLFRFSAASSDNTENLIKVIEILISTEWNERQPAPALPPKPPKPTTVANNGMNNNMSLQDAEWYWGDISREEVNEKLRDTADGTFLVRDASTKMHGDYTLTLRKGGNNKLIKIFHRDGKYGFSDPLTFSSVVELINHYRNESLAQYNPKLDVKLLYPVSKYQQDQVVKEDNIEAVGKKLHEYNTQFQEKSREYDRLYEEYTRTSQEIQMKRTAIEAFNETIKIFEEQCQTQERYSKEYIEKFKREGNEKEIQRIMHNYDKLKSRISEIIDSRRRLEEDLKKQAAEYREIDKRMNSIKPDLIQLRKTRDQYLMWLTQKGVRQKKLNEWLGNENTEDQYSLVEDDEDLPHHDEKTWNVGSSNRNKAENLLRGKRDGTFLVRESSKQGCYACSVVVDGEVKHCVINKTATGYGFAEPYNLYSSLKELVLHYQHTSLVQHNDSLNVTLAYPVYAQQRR
As to the kind of experiment: PI3K α in vitro kinase inhibition assay. In kind it is biochemical.

The target of another test is T4, PI3K γ (Homo sapiens, UniProt P48736).
T4 construct: purchased Sigma
T4 sequence (P48736 whole entry): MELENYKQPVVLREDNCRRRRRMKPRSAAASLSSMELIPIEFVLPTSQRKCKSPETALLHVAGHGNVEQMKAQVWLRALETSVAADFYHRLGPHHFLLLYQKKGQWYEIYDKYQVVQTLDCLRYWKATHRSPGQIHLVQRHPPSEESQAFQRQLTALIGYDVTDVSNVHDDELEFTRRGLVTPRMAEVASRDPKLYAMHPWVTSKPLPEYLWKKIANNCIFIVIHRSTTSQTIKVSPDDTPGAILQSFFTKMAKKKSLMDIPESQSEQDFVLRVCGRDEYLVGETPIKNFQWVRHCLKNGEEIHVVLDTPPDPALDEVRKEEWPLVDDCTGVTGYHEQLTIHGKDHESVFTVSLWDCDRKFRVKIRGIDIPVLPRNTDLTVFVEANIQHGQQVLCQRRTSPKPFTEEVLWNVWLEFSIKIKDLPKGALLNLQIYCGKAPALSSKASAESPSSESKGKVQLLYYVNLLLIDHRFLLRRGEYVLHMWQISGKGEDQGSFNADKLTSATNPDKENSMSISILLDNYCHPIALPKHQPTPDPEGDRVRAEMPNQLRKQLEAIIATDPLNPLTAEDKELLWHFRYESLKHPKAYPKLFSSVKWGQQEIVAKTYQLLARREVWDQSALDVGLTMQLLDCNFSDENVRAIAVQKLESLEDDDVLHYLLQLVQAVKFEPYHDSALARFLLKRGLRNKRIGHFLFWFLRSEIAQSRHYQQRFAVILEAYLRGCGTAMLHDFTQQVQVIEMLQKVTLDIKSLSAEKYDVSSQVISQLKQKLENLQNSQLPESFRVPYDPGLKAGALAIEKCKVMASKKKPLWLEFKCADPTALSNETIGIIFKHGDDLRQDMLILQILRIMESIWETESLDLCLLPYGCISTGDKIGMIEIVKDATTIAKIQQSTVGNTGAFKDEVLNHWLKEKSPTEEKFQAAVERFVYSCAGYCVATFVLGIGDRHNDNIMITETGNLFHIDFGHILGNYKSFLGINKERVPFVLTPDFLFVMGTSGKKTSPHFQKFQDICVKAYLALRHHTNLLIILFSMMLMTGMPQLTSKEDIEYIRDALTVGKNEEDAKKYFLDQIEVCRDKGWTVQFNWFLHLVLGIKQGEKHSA
As to the kind of experiment: PI3K γ in vitro kinase inhibition assay. In kind it is biochemical.

The next test relates to Balb/c splenic B cells. As to the kind of experiment: B cell activation and proliferation assay (Alamar Blue). It counts as cell-based. The conditions noted are these: Mus musculus, read-out: B cell proliferation EC50. A general note: The colour change of resazurin is a common sign of viable cells or microbes.

T1 sequence (P42338 whole entry): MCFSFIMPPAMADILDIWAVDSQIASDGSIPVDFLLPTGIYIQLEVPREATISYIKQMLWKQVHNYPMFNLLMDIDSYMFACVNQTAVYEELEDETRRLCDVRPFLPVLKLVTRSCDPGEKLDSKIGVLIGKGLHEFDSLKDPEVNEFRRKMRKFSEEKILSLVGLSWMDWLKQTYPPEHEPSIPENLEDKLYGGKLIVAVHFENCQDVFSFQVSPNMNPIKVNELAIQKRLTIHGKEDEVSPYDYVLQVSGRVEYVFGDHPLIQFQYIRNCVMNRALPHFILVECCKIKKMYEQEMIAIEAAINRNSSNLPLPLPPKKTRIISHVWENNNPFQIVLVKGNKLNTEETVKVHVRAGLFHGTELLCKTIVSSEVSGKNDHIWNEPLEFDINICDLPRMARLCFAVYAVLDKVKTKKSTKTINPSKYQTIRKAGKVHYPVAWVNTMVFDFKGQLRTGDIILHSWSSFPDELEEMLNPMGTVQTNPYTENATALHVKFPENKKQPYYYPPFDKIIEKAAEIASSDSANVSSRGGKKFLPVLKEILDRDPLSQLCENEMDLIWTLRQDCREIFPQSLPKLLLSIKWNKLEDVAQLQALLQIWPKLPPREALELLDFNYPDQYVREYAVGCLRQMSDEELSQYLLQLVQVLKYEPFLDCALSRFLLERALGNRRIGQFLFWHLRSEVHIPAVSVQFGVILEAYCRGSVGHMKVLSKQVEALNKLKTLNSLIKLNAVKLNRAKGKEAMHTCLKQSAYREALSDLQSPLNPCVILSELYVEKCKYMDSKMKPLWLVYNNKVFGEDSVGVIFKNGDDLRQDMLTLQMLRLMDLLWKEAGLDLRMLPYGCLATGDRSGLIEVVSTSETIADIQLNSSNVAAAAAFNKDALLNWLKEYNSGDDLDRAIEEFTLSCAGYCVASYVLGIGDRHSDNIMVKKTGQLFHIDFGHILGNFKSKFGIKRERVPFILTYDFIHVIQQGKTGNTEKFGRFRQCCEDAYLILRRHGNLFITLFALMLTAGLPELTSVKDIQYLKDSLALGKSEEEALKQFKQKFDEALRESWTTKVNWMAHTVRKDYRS
T1 sequence (P27986 whole entry partner): as the sequence (P27986 whole entry partner) above
T2 sequence (O00329 whole entry): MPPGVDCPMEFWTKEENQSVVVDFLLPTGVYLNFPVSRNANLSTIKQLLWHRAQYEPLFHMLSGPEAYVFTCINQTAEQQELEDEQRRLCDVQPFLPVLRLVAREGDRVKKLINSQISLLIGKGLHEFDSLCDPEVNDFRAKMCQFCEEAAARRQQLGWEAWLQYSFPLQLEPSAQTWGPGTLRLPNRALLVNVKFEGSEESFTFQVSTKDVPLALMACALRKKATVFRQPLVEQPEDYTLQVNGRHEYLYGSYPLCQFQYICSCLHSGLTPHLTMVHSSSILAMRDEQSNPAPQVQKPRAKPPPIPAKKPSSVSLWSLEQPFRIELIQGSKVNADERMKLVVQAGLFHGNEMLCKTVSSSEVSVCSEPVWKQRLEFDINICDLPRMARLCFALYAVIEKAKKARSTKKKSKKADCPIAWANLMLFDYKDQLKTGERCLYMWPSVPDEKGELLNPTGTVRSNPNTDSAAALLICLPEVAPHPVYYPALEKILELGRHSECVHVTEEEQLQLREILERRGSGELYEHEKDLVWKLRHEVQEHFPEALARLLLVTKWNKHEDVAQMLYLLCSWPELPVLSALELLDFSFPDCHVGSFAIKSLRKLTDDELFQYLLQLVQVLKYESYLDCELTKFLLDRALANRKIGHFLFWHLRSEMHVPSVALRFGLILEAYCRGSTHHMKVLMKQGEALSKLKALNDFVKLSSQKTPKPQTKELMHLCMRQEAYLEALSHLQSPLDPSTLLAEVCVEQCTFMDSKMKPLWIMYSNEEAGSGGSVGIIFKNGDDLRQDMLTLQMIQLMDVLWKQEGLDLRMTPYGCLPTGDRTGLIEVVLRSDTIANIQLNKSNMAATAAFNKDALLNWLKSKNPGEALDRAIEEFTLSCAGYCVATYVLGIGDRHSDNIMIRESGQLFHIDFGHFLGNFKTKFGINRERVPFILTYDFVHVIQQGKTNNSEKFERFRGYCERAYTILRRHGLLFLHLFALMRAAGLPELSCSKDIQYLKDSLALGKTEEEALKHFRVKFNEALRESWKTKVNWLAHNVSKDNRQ
T2 sequence (P27986 whole entry partner): as the sequence (P27986 whole entry partner) above
Description for Balb/c splenic B cells: The assay is performed in a 96 well microtiter plate using Alamar Blue reduction. Balb/c splenic B cells are purified over a Ficoll-Paque™ PLUS gradient followed by magnetic cell separation using a MACS B cell Isolation Kit (Miletenyi). Cells are plated in 90 ul at 50,000 cells/well in B Cell Media (RPMI+10% FBS+Penn/Strep+50 uM bME+5 mM HEPES). A compound disclosed herein is diluted in B Cell Media and added in a 10 ul volume. Plates are incubated for 30 min at 37 C and 5% CO2 (0.2% DMSO final concentration). A 50 ul B cell stimulation cocktail is then added containing either 10 ug/ml LPS or 5 ug/ml F(ab′)2 Donkey anti-mouse IgM plus 2 ng/ml recombinant mouse IL4 in B Cell Media. […] A volume of 15 uL of Alamar Blue reagent is added to each well and plates are incubated for 5 hours at 37 C and 5% CO2. Alamar Blue fluoresce is read at 560Ex/590Em, and IC50 or EC50 values are calculated using GraphPad Prism 5.
Description for PI3K α: (§1) IC50 values are measured using either a standard TLC assay for lipid kinase activity (described below) or a high-throughput membrane capture assay. Kinase reactions are performed by preparing a reaction mixture containing kinase, inhibitor (2% DMSO final concentration), buffer (25 mM HEPES, pH 7.4, 10 mM MgCl2), and freshly sonicated phosphatidylinositol (100 μg/ml). Reactions are initiated by the addition of ATP containing 10 μCi of γ-32P-ATP to a final concentration 10 or 100 μM and allowed to proceed for 5 minutes at room temperature. For TLC analysis, reactions are then terminated by the addition of 105 μl 1N HCl followed by 160 μl CHCl3:MeOH (1:1). The biphasic mixture is vortexed, briefly centrifuged, and the organic phase is transferred to a new tube using a gel loading pipette tip precoated with CHCl3. This extract is spotted on TLC plates and developed for 3-4 hours in a 65:35 solution of n-propanol:1M acetic acid. The TLC plates are then dried, exposed to a phosphorimager screen (Storm, Amersham), and quantitated.
(§2) Briefly, the assay is a time resolved FRET assay that indirectly measures PIP3 product formed by the activity of a PI3-K. The kinase reaction is performed in a microtiter plate (e.g., a 384 well microtiter plate). The total reaction volume is approximately 20 ul per well. In the first step, each well receives 2 ul of test compound in 20% dimethylsulphoxide resulting in a 2% DMSO final concentration. Next, approximately 14.5 ul of a kinase/PIP2 mixture (diluted in 1× reaction buffer) is added per well for a final concentration of 0.25-0.3 ug/ml kinase and 10 uM PIP2. […] To start the reaction, 3.5 ul of ATP (diluted in 1× reaction buffer) is added per well for a final concentration of 10 uM ATP. The plate is sealed and incubated for 1 hour at room temperature. The reaction is stopped by adding 5 ul of Stop Solution per well and then 5 μl of Detection Mix is added per well. The plate is sealed, incubated for 1 hour at room temperature, and then read on an appropriate plate reader. Data is analyzed and IC50s are generated using GraphPad Prism 5.
Description for PI3K β: as §1, §2
Description for PI3K γ: as §1, §2
Description for PI3K δ: as §1, §2

On to `Cc1ccccc1-n1c(Cn2nc(Br)c3c(N)ncnc32)nc2sc(C)c(C)c2c1=O` [Compound 301], for which the IC50 is over 10 µM at PI3K β, under 0.1 µM against PI3K δ, over 10 µM against PI3K α and over 10 µM against PI3K γ.
Take `Cc1cc2c(=O)n(-c3ccccc3C)c(Cn3nc(-c4cccc(O)c4)c4c(N)ncnc43)nc2s1` [Compound 294]: the half-maximal inhibitory concentration (IC50) on PI3K β was over 10 µM; at PI3K δ, under 10 µM; on PI3K α, over 10 µM; against PI3K γ it was over 10 µM.
With `Cc1csc2nc(Cn3nc(-c4ccc(O)cc4)c4c(N)ncnc43)n(-c3ccccc3F)c(=O)c12` [Compound 263], the IC50 is over 10 µM against PI3K β, under 10 µM on PI3K δ, over 10 µM on PI3K α and under 10 µM at PI3K γ. Moreover, in the test on Balb/c splenic B cells, the EC50 was under 10 µM.
For `Cc1cccnc1-n1c(Cn2nc(Cl)c3c(N)ncnc32)nc2scc(C)c2c1=O` [Compound 270], the IC50 against PI3K β is over 10 µM; against PI3K δ it was under 1 µM; against PI3K α it was over 10 µM; at PI3K γ, under 10 µM.
With `Cc1ccccc1-n1c(Cn2nc(Br)c3c(N)ncnc32)nc2scc(C)c2c1=O` [Compound 250], the IC50 against PI3K β is over 10 µM; against PI3K δ, under 0.1 µM; at PI3K α it was over 10 µM; against PI3K γ it was under 1 µM. Also, the EC50 in the test on Balb/c splenic B cells is under 0.1 µM.
Turning to `Cc1ccccc1-n1c(Cn2nc(-c3ccc(O)c(F)c3)c3c(N)ncnc32)cc2nccc(C)c2c1=O` [Compound 226], the IC50 at PI3K β is over 10 µM; against PI3K δ it was under 0.1 µM; at PI3K α, over 10 µM; against PI3K γ, under 1 µM. Further, the EC50 in the test with Balb/c splenic B cells is under 1 µM.
With `Cc1cc2c(=O)n(-c3ccccc3C)c(Cn3nc(Br)c4c(N)ncnc43)nc2s1` [Compound 285], the 50% inhibitory concentration (IC50) is over 10 µM against PI3K β, under 10 µM on PI3K δ, over 10 µM at PI3K α and over 10 µM at PI3K γ.
With `CCc1ccccc1-n1c(Cn2nc(-c3cccc(O)c3)c3c(N)ncnc32)nc2scc(C)c2c1=O` [Compound 290], the IC50 is under 10 µM against PI3K β, under 0.1 µM on PI3K δ, over 10 µM against PI3K α and under 0.1 µM at PI3K γ. Besides, the EC50 with Balb/c splenic B cells is under 0.1 µM.
As to `CCc1ccccc1-n1c(Cn2nc(-c3cc(O)cc(F)c3)c3c(N)ncnc32)nc2scc(C)c2c1=O` [Compound 292], the IC50 on PI3K β is under 1 µM; against PI3K δ it was under 0.1 µM; at PI3K α it was over 10 µM; on PI3K γ it was under 0.1 µM. In addition, the EC50 with Balb/c splenic B cells was under 0.1 µM.
`Cc1ccccc1-n1c(Cn2nc(C#CC3CC3)c3c(N)ncnc32)cc2nccc(C)c2c1=O` [Compound 225]: the IC50 was over 10 µM against PI3K β, under 1 µM against PI3K δ, over 10 µM at PI3K α and over 10 µM against PI3K γ. Moreover, in the test on Balb/c splenic B cells, the EC50 is under 1 µM.
On to `Cc1ccccc1N1C(=O)C2C(C=NN2C)N=C1Cn1nc(-c2cc(O)cc(F)c2)c2c(N)ncnc21` (centres unmarked) [Compound 221], for which the IC50 at PI3K β is over 10 µM; against PI3K δ, under 0.1 µM; on PI3K α, over 10 µM; against PI3K γ, over 10 µM. Also, the EC50 in the test on Balb/c splenic B cells is under 1 µM.
Take `Cc1nn(Cc2nc3nccc(C)c3c(=O)n2-c2ccccc2F)c2ncnc(N)c12` [Compound 210]: the IC50 on PI3K β was over 10 µM; against PI3K δ, under 10 µM; on PI3K α, over 10 µM; against PI3K γ, over 10 µM. For the same molecule, the EC50 in the test on Balb/c splenic B cells is under 10 µM.
Take `Cc1ccccc1-n1c(Cn2nc(I)c3c(N)ncnc32)nc2scc(C)c2c1=O` [Compound 242]: the IC50 against PI3K β was over 10 µM; against PI3K δ, under 0.1 µM; against PI3K α, over 10 µM; against PI3K γ, under 1 µM. In addition, in the test with Balb/c splenic B cells, the EC50 is under 0.1 µM.
Consider `Cc1ccccc1-n1c(Cn2nc(-c3cc(O)cc(F)c3)c3c(N)ncnc32)nc2nccc(C)c2c1=O` [Compound 200], for which the IC50 on PI3K β was over 10 µM; against PI3K δ it was under 1 µM; against PI3K α, over 10 µM; on PI3K γ, over 10 µM. The EC50 in the test on Balb/c splenic B cells was under 10 µM.
For `Cc1csc2nc(Cn3nc(I)c4c(N)ncnc43)n(-c3ccccc3C(C)C)c(=O)c12` [Compound 284], the IC50 was under 10 µM against PI3K β, under 0.1 µM at PI3K δ, over 10 µM against PI3K α and under 0.1 µM against PI3K γ. Moreover, the EC50 in the test on Balb/c splenic B cells is under 0.1 µM.
For the molecule `COc1ccccc1-n1c(Cn2nc(-c3cccc(O)c3)c3c(N)ncnc32)nc2scc(C)c2c1=O` [Compound 275], the IC50 against PI3K β was under 10 µM; against PI3K δ, under 0.1 µM; against PI3K α, over 10 µM; at PI3K γ, under 1 µM. Besides, the EC50 in the test on Balb/c splenic B cells was under 0.1 µM.
On to `Cc1ccccc1-n1c(Cn2nc(C)c3c(N)ncnc32)nc2scc(C)c2c1=O` [Compound 246], for which the IC50 against PI3K β was over 10 µM; against PI3K δ it was under 0.1 µM; against PI3K α, over 10 µM; against PI3K γ, under 0.1 µM. In addition, the EC50 with Balb/c splenic B cells is under 1 µM.
As to `COc1ccccc1-n1c(Cn2nc(Br)c3c(N)ncnc32)nc2scc(C)c2c1=O` [Compound 274], the IC50 at PI3K β is over 10 µM; against PI3K δ, under 0.1 µM; against PI3K α it was over 10 µM; against PI3K γ, under 1 µM.
`Cc1ccccc1-n1c(Cn2nc(C#CC3CC3)c3c(N)ncnc32)nc2nccc(C)c2c1=O` [Compound 202]: the IC50 was over 10 µM at PI3K β, under 1 µM on PI3K δ, over 10 µM against PI3K α and over 10 µM on PI3K γ. Moreover, the EC50 in the test with Balb/c splenic B cells was under 10 µM.
For `Cc1ccccc1-n1c(Cn2nc(Br)c3c(N)ncnc32)nc2snc(C)c2c1=O` [Compound 239], the IC50 on PI3K β is over 10 µM; against PI3K δ, under 1 µM; against PI3K α it was over 10 µM; against PI3K γ, over 10 µM.
With `Cc1cccnc1-n1c(Cn2nc(I)c3c(N)ncnc32)cc2cccc(C)c2c1=O` [Compound 92], the IC50 against PI3K δ and on PI3K γ was under 10 µM each time.
With `Cc1csc2nc(Cn3nc(-c4cccc(O)c4)c4c(N)ncnc43)n(-c3ccccc3C(F)(F)F)c(=O)c12` [Compound 281], the IC50 is under 10 µM against PI3K β, under 0.1 µM on PI3K δ, over 10 µM on PI3K α and under 0.1 µM against PI3K γ. The EC50 with Balb/c splenic B cells was under 0.1 µM.
Take `Cc1ccnc2nc(Cn3nc(C#CC4CC4)c4c(N)ncnc43)n(-c3ccccc3Cl)c(=O)c12` [Compound 208]: the IC50 on PI3K β is over 10 µM; on PI3K δ it was under 10 µM; against PI3K α it was over 10 µM; at PI3K γ, over 10 µM. For the same molecule, the EC50 in the test on Balb/c splenic B cells is under 10 µM.
In the case of `CCc1ccccc1-n1c(Cn2nc(Br)c3c(N)ncnc32)nc2scc(C)c2c1=O` [Compound 283], the IC50 at PI3K β is under 10 µM; at PI3K δ it was under 0.1 µM; against PI3K α, over 10 µM; against PI3K γ it was under 0.1 µM. Also, the EC50 in the test on Balb/c splenic B cells was under 0.1 µM.
As to `Cc1csc2nc(Cn3nc(-c4ccc(F)c(O)c4)c4c(N)ncnc43)n(-c3ccccc3F)c(=O)c12` [Compound 259], the IC50 on PI3K β is over 10 µM; against PI3K δ, under 0.1 µM; against PI3K α it was over 10 µM; against PI3K γ, under 1 µM. In addition, the EC50 with Balb/c splenic B cells is under 0.1 µM.
Regarding `Cc1ccccc1-n1c(Cn2nc(Br)c3c(N)ncnc32)nc2nccc(C)c2c1=O` [Compound 204], the IC50 against PI3K β was over 10 µM; against PI3K δ it was under 0.1 µM; against PI3K α it was over 10 µM; at PI3K γ it was over 10 µM. In addition, the EC50 with Balb/c splenic B cells was under 1 µM.
As for `Cc1csc2nc(Cn3nc(Br)c4c(N)ncnc43)n(-c3ccccc3Cl)c(=O)c12` [Compound 286], the half-maximal inhibitory concentration (IC50) is under 10 µM at PI3K β, under 0.1 µM against PI3K δ, over 10 µM against PI3K α and under 1 µM on PI3K γ. Moreover, the EC50 with Balb/c splenic B cells is under 0.1 µM.
As to `Cc1ccccc1-n1c(Cn2nc(-c3ccc(O)c(Cl)c3)c3c(N)ncnc32)nc2scc(C)c2c1=O` [Compound 269], the IC50 against PI3K β was under 10 µM; at PI3K δ, under 0.1 µM; against PI3K α it was over 10 µM; against PI3K γ, under 0.1 µM.
Regarding `Cc1ccccc1-n1c(Cn2nc(-c3cccc(O)c3)c3c(N)ncnc32)nc2sc(C)c(C)c2c1=O` [Compound 299], the IC50 against PI3K β was over 10 µM; on PI3K δ, under 1 µM; at PI3K α, over 10 µM; against PI3K γ, over 10 µM.
On to `Cc1ccccc1-n1c(Cn2nc(-c3cccc(O)c3)c3c(N)ncnc32)nc2snc(C)c2c1=O` [Compound 241], for which the IC50 at PI3K β is over 10 µM; at PI3K δ, under 1 µM; on PI3K α, over 10 µM; on PI3K γ, under 10 µM.
As to `Cc1ccccc1-n1c(Cn2nc(C#C[C@@H](C)O)c3c(N)ncnc32)cc2cccc(F)c2c1=O` [Compound 43], in the test with Balb/c splenic B cells, the EC50 is under 10 µM.
Same read-out and setting: the figure for `CC(=O)Nc1nc2ccc(-c3nn(Cc4cc5cccc(Cl)c5c(=O)n4C4CC4)c4ncnc(N)c34)cc2s1` [Compound 156] is under 0.1 µM; for `Cc1cccc2cc(Cn3nc(-c4cc(O)cc(F)c4)c4c(N)ncnc43)n(-c3ccccc3Cl)c(=O)c12` [Compound 97] it is under 0.1 µM.
On the same count and under the same terms, the figure for `Cc1ccccc1-n1c(Cn2nc(C#CCO)c3c(N)ncnc32)cc2cccc(C)c2c1=O` [Compound 11] is under 1 µM; for `Cc1ccccc1-n1c(Cn2cnc3c(N)ncnc32)cc2cccc(C)c2c1=O` [Compound 5] it is under 10 µM.
The same measure, in the same setting: the figure for `Cc1cccc2cc(Cn3nc(C#C[C@@H](C)O)c4c(N)ncnc43)n(-c3ccccc3Cl)c(=O)c12` [Compound 98] is under 1 µM; for `Cc1cccc2cc(Cn3nc(-c4cccc(O)c4)c4c(N)ncnc43)n(C3CCC3)c(=O)c12` [Compound 114] it is under 1 µM; for `Cc1cccc2cc(Cn3nc(-c4cc(O)cc(F)c4)c4c(N)ncnc43)n(C3CCCC3)c(=O)c12` [Compound 63] it is under 0.1 µM.
